Results published in US20130053434A1, “IRREVERSIBLE INHIBITORS USEFUL FOR THE TREATMENT OF KINASE-RELATED PATHOLOGIES” (CENTRE NATIONAL DE LA RECHERCHE SCIENTIFIQUE, priority 2009, published 2013).

How the values were obtained:
[1] = inactivation by thiols such as DTT or GST; assay type: in vitro ADME
[2] = plasma half-life; assay type: in vitro ADME
[3] = target: VEGFR2 (Homo sapiens, UniProt P35968); assay: cellular inhibition of VEGFR2; assay type: cell-based; settings: triplicate
Procedure: FIG. 21. […] Assays were performed in triplicate.
To gage the undiscriminate reactivity of these enone resorcylic acids with thiols, fluoroenone 2 and the parent analogue lacking the fluoride were treated with one equivalent of DTT (2 mM) as a prototypical thiol nucleophile in PBS (pH 7.4) containing 1% DMSO. […] With fluoroenone 1 and 2 in hand, we tested their efficacy against VEGF-R2 which was frequently found to be the most inhibited kinase in our profile of cis-enone resorcylic acid library (Dakas, P. Y., et al. (2007) Angew. Chem. Int. Ed. Engl. 46, 6899-902; Jogireddy, R., et al. (2009) Chem. Eur. J. 15, 11498-506) and KIT which represents a less inhibited kinase. […] Their cellular activity against VEGF-R2 did parallel the biochemical activity. […] During the course of our investigation, a similar modification was reported by researchers from Esai (Du, H., et al. (2009) Bioorg. Med. Chem. Lett. 19, 6196-9) however, their medicinal chemistry efforts focused the inhibition of inflammation related pathways (MEKs and their down-stream regulatory effect on cytokines) (Du, H., et al. (2009) Bioorg. Med. Chem. Lett. 19, 6196-9; Goto, M., et al. (2009) J. Pharmacol. Exp. Ther. 331, 485-95). […]

[4] = target: MEK (Homo sapiens, UniProt Q02750); settings: reported values; read-out: MEK inhibition; cited from earlier work
Chain of MEK (Q02750 whole entry): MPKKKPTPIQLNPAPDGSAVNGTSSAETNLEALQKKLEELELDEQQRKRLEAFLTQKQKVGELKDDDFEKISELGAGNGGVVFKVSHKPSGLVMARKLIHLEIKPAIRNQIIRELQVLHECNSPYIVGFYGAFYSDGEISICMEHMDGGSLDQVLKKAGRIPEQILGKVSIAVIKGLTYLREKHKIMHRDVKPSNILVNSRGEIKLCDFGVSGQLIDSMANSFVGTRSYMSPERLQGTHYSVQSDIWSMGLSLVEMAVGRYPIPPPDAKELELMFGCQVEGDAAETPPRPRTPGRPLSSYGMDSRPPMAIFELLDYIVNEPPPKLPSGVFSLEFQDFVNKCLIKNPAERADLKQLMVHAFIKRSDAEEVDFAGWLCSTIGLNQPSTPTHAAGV

[5] = target: ERK2 (Homo sapiens, UniProt P28482); settings: Nakajima and Miyake; cited from earlier work
Chain of ERK2 (P28482 whole entry, species assumed): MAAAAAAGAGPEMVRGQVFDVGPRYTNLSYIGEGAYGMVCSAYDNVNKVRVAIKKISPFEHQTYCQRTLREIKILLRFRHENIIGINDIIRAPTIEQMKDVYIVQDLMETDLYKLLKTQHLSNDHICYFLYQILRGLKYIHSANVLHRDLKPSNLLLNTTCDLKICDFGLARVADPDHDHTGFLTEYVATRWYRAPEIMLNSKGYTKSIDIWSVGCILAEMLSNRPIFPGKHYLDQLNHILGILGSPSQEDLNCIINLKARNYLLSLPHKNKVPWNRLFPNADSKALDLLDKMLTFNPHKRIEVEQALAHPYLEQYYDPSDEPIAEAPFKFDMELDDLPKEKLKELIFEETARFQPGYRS

[6] = in vivo; cited from earlier work

Chain of VEGFR2 (P35968 20-1356, species assumed): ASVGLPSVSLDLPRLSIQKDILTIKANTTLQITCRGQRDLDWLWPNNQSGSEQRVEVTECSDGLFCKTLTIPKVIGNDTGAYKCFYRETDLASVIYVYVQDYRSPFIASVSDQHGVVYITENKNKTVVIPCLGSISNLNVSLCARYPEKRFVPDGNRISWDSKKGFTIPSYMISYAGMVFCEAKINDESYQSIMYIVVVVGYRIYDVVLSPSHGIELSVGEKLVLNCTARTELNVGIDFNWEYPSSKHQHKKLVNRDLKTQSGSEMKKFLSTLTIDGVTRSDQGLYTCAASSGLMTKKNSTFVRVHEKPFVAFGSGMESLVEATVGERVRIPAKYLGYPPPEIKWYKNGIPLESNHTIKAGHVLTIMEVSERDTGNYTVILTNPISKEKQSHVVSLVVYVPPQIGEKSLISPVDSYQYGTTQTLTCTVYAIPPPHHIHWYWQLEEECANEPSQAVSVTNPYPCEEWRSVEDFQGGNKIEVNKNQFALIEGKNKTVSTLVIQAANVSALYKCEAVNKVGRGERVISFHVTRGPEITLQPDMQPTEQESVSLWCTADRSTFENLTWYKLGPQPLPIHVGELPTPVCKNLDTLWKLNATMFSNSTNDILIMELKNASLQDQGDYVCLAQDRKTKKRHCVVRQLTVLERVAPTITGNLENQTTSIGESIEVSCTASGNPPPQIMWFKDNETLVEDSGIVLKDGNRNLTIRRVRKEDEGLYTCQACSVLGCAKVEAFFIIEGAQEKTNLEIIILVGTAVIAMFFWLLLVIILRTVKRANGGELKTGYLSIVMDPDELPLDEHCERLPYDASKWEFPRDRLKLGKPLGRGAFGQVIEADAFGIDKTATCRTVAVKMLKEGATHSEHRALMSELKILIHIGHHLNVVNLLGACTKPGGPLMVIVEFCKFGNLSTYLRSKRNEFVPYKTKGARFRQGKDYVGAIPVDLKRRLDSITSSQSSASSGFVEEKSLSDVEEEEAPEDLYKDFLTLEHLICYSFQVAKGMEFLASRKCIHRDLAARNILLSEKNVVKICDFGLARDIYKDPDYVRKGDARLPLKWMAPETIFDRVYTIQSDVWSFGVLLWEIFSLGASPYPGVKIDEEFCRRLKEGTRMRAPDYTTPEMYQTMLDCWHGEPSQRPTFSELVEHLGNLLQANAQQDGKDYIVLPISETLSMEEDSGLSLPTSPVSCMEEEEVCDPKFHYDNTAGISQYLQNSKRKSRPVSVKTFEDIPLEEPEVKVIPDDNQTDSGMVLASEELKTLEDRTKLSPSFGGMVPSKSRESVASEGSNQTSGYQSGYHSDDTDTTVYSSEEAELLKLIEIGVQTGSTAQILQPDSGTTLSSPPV

COc1cc(O)c2c(c1)/C=C/C[C@H](O)[C@H](O)C(=O)/C=C\C[C@H](C)OC2=O [LL-Z1640-2]
inactivation by thiols [1]: inactivated by thiols such as DTT or GST | plasma half-life [2]: short plasma half-life | IC50 [3]: 6.5 nM | IC50 [4]: 411 nM | difference in activity between LL-Z1640-2 and L-783277 in inhibition of ERK2 [5]: 50 fold | efficacy in animal models [6]: effective in animal models
